Laboratory results from ChEMBL document CHEMBL5046308, “Heterobifunctional Compounds as BRAF Degraders for Treating Cancer” (ACS Med Chem Lett, 2022).

The compounds below were run against Protein cereblon/Serine/threonine-protein kinase B-raf (Homo sapiens, UniProt P15056+Q96SW2, V600E) (assay: Protac activity at CRBN/BRAF V600E mutant (unknown origin) assessed as BRAF V600E degradation by HiBit cellular BRAF V600E degradation assay).
Sequence of Protein cereblon/Serine/threonine-protein kinase B-raf (P15056 2-766 V600E limits assumed, stated change not applied): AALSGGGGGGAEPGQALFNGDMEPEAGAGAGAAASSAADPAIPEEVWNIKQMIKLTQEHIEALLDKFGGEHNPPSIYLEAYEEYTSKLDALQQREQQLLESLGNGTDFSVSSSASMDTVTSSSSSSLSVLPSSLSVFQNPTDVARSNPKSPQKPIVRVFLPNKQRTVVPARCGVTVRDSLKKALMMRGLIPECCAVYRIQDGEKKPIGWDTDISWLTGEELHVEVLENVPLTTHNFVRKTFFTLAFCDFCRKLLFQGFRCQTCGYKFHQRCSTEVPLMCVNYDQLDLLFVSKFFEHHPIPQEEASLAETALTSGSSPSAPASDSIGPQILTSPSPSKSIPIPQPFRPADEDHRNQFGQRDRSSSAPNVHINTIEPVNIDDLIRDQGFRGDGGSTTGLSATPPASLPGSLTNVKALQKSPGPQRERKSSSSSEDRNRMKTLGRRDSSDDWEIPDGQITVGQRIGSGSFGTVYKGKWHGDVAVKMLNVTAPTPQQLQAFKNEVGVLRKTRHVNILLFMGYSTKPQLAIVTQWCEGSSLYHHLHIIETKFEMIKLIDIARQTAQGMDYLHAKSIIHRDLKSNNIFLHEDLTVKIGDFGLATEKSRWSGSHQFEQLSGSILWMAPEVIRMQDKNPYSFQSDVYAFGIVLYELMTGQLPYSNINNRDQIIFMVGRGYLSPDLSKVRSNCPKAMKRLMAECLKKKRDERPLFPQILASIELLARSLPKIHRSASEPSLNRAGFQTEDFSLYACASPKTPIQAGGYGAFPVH
Sequence of Protein cereblon/Serine/threonine-protein kinase B-raf (Q96SW2 whole entry, stated change not applied): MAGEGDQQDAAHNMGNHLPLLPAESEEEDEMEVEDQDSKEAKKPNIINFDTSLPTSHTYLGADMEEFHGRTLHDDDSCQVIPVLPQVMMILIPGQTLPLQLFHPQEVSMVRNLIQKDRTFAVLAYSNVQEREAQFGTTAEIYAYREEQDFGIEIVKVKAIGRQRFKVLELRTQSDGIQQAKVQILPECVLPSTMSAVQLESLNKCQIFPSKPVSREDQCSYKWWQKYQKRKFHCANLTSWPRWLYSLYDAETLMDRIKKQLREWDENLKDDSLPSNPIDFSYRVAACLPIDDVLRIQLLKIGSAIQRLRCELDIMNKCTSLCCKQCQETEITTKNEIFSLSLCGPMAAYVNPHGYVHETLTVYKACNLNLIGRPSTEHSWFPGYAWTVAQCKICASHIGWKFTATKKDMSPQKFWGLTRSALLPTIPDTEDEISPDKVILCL

First: CCN(C)S(=O)(=O)Nc1ccc(F)c(C(=O)c2c[nH]c3ncc(-c4ccc(N5CCN(C(=O)CCCNc6cccc7c6C(=O)N(C6CCC(=O)NC6=O)C7=O)CC5)nc4)cc23)c1F (stereo unspecified)
Second: CCN(C)S(=O)(=O)Nc1ccc(F)c(C(=O)c2c[nH]c3ncc(-c4ccc(N5CCN(C(=O)CCCOc6cccc7c6C(=O)N(C6CCC(=O)NC6=O)C7=O)CC5)nc4)cc23)c1F (stereo unspecified)
The DC50 of the first is 2.6-fold higher: 0.026 µM for the first, 0.01 µM for the second.

`CCN(C)S(=O)(=O)Nc1ccc(F)c(C(=O)c2c[nH]c3ncc(-c4ccc(N5CCN(C(=O)CCCOc6cccc7c6C(=O)N(C6CCC(=O)NC6=O)C7=O)CC5)cc4)cc23)c1F` (stereo unspecified) and `CCN(C)S(=O)(=O)Nc1ccc(F)c(C(=O)c2c[nH]c3ncc(-c4cnc(N5CCN(C(=O)CCCOc6cccc7c6C(=O)N(C6CCC(=O)NC6=O)C7=O)CC5)nc4)cc23)c1F` (stereo unspecified) are within 1.5-fold of each other in DC50: 0.016 µM for the first, 0.02 µM for the second.

First: CCN(C)S(=O)(=O)Nc1ccc(F)c(C(=O)c2c[nH]c3ncc(-c4ccc(N5CCN(C(=O)[C@H]6C[C@H](Nc7cccc8c7C(=O)N(C7CCC(=O)NC7=O)C8=O)C6)CC5)nc4)cc23)c1F (stereo partly specified)
Second: CCN(C)S(=O)(=O)Nc1ccc(F)c(C(=O)c2c[nH]c3ncc(-c4ccc(N5CCN(C(=O)[C@H]6C[C@H](Nc7cccc8c7C(=O)N(C7CCC(=O)NC7=O)C8=O)C6)CC5)cc4)cc23)c1F (stereo partly specified)
The DC50 of the first is 2.3-fold lower: 0.01 µM for the first, 0.023 µM for the second.
